Results reported in ChEMBL document CHEMBL5649169 (ChemMedChem, 2018).

Legend:
[1] = biological target: Sorting and assembly machinery component 50 homolog (Homo sapiens) (UniProt Q9Y512)
[2] = biological target: cAMP-dependent protein kinase type II-alpha regulatory subunit (Homo sapiens) (UniProt P13861)
[3] = biological target: Coatomer subunit delta (Homo sapiens) (UniProt P48444)
[4] = biological target: Very-long-chain enoyl-CoA reductase (Homo sapiens) (UniProt Q9NZ01)
[5] = biological target: Serine/threonine-protein kinase MRCK gamma (Homo sapiens) (UniProt Q6DT37)
[6] = biological target: THO complex subunit 4 (Homo sapiens) (UniProt Q86V81)
[7] = biological target: Prohibitin 1 (Homo sapiens) (UniProt P35232)
[8] = biological target: Cyclin-dependent kinase 17 (Homo sapiens) (UniProt Q00537)
[9] = biological target: Carbamoyl-phosphate synthase [ammonia], mitochondrial (Homo sapiens) (UniProt P31327)
[10] = biological target: Proteasome adapter and scaffold protein ECM29 (Homo sapiens) (UniProt Q5VYK3)
[11] = organism: Homo sapiens
[12] = biological target: Dolichyl-diphosphooligosaccharide--protein glycosyltransferase subunit 1 (Homo sapiens) (UniProt P04843)
[13] = organism: Homo sapiens; remark: listed apart in the source
[14] = biological target: Dual specificity mitogen-activated protein kinase kinase 2 (Homo sapiens) (UniProt P36507)
[15] = biological target: Serine/arginine-rich splicing factor 6 (Homo sapiens) (UniProt Q13247)
[16] = biological target: Low molecular weight phosphotyrosine protein phosphatase (Homo sapiens) (UniProt P24666)
[17] = biological target: DNA topoisomerase 2-alpha (Homo sapiens) (UniProt P11388)
[18] = organism: Homo sapiens; remark: listed apart in the source
[19] = biological target: Protein FAM83E (Homo sapiens) (UniProt Q2M2I3)
[20] = biological target: Translocon-associated protein subunit alpha (Homo sapiens) (UniProt P43307)
[21] = biological target: Alpha-enolase (Homo sapiens) (UniProt P06733)
[22] = biological target: Actin-related protein 2/3 complex subunit 5 (Homo sapiens) (UniProt O15511)
[23] = biological target: Cytoplasmic FMR1-interacting protein 1 (Homo sapiens) (UniProt Q7L576)
[24] = biological target: Serine/threonine-protein kinase 10 (Homo sapiens) (UniProt O94804)
[25] = biological target: STE20-like serine/threonine-protein kinase (Homo sapiens) (UniProt Q9H2G2)
[26] = biological target: Dolichyl-diphosphooligosaccharide--protein glycosyltransferase subunit STT3A (Homo sapiens) (UniProt P46977)
[27] = organism: Homo sapiens; remark: listed apart in the source
[28] = biological target: ATP-dependent 6-phosphofructokinase, platelet type (Homo sapiens) (UniProt Q01813)
[29] = biological target: Dihydrolipoyl dehydrogenase, mitochondrial (Homo sapiens) (UniProt P09622)
[30] = biological target: Puromycin-sensitive aminopeptidase (Homo sapiens) (UniProt P55786)
[31] = biological target: Large ribosomal subunit protein eL13 (Homo sapiens) (UniProt P26373)
[32] = biological target: Gamma-tubulin complex component 2 (Homo sapiens) (UniProt Q9BSJ2)
[33] = biological target: WD repeat-containing protein 5 (Homo sapiens) (UniProt P61964)
[34] = biological target: ELAV-like protein 1 (Homo sapiens) (UniProt Q15717)
[35] = organism: Homo sapiens; remark: listed apart in the source
[36] = biological target: Calcium/calmodulin-dependent protein kinase type II subunit delta (Homo sapiens) (UniProt Q13557)
[37] = biological target: Lysine--tRNA ligase (Homo sapiens) (UniProt Q15046)
[38] = biological target: Epidermal growth factor receptor (Homo sapiens) (UniProt P00533)
[39] = biological target: Transmembrane 9 superfamily member 3 (Homo sapiens) (UniProt Q9HD45)
[40] = biological target: Protein kinase C beta type (Homo sapiens) (UniProt P05771)
[41] = biological target: Ubiquitin-associated protein 2-like (Homo sapiens) (UniProt Q14157)
[42] = biological target: Large ribosomal subunit protein eL22 (Homo sapiens) (UniProt P35268)
[43] = biological target: Transitional endoplasmic reticulum ATPase (Homo sapiens) (UniProt P55072)
[44] = biological target: Aspartate aminotransferase, cytoplasmic (Homo sapiens) (UniProt P17174)
[45] = biological target: Hepatoma-derived growth factor (Homo sapiens) (UniProt P51858)
[46] = biological target: LIM and SH3 domain protein 1 (Homo sapiens) (UniProt Q14847)
[47] = biological target: Importin-4 (Homo sapiens) (UniProt Q8TEX9)
[48] = biological target: Small ribosomal subunit protein uS13 (Homo sapiens) (UniProt P62269)
Further: assay method not described here.

Coatomer subunit delta (Homo sapiens), sequence (P48444 whole entry): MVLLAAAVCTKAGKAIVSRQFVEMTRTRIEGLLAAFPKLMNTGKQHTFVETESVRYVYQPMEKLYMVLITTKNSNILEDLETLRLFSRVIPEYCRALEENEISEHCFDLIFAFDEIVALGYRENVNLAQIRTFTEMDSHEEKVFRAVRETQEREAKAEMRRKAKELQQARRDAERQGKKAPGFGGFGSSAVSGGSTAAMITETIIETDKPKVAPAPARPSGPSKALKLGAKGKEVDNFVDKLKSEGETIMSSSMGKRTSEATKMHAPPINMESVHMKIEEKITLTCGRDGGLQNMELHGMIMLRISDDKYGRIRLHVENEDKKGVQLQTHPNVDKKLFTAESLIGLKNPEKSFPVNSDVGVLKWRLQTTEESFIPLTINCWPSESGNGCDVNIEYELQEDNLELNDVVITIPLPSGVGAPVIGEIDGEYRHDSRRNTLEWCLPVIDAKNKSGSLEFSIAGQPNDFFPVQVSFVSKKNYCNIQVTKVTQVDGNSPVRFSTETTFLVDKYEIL
Aspartate aminotransferase, cytoplasmic (Homo sapiens), sequence (P17174 whole entry): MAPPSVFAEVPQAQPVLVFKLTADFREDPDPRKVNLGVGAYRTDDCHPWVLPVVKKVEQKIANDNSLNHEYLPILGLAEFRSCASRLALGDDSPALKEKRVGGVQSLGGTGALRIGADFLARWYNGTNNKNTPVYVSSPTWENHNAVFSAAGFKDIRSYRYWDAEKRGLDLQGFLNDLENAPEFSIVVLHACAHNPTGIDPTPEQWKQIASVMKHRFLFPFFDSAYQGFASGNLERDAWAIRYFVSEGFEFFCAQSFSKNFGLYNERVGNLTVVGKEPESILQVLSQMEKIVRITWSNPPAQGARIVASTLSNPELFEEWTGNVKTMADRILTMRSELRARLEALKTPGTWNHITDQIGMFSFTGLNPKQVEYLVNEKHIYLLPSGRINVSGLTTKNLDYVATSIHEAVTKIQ
Hepatoma-derived growth factor (Homo sapiens), sequence (P51858 whole entry, the tested form may be a part): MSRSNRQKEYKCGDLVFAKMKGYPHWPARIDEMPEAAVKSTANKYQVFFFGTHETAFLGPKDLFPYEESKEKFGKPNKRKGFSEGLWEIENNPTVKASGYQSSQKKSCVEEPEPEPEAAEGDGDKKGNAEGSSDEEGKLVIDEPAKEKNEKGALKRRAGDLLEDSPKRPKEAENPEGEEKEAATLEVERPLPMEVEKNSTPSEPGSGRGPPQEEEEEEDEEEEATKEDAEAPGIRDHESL
LIM and SH3 domain protein 1 (Homo sapiens), sequence (Q14847 whole entry, the tested form may be a part): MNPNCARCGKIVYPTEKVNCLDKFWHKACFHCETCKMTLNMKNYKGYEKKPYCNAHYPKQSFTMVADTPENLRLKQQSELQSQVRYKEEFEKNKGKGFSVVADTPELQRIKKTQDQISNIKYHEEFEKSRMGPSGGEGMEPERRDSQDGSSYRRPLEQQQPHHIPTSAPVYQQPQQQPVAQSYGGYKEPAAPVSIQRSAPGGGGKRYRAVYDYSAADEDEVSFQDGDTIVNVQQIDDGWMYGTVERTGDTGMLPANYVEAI
Gamma-tubulin complex component 2 (Homo sapiens), sequence (Q9BSJ2 whole entry, one chain of several): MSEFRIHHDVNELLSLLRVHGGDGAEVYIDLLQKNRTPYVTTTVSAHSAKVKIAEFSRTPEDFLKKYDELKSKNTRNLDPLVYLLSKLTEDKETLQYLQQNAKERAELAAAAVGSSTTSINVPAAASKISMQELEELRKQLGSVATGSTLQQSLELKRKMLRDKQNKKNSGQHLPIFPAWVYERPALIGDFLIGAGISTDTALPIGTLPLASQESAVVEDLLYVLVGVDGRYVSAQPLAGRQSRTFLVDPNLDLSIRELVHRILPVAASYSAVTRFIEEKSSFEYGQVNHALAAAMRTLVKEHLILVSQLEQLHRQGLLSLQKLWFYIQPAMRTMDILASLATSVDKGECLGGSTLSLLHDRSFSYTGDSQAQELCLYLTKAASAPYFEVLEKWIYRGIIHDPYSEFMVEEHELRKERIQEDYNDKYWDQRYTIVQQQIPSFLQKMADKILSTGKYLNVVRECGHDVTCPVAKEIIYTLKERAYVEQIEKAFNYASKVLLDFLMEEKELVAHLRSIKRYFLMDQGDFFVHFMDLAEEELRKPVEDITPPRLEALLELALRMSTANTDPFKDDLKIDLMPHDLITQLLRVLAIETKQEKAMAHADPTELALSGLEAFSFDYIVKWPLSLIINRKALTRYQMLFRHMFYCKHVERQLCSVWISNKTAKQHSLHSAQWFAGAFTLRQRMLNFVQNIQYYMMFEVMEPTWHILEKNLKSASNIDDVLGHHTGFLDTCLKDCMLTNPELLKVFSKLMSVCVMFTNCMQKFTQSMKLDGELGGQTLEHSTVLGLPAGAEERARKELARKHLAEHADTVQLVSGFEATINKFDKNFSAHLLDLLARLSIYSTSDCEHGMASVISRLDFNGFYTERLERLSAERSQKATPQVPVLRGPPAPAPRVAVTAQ
Protein kinase C beta type (Homo sapiens), sequence (P05771 2-671 limits assumed): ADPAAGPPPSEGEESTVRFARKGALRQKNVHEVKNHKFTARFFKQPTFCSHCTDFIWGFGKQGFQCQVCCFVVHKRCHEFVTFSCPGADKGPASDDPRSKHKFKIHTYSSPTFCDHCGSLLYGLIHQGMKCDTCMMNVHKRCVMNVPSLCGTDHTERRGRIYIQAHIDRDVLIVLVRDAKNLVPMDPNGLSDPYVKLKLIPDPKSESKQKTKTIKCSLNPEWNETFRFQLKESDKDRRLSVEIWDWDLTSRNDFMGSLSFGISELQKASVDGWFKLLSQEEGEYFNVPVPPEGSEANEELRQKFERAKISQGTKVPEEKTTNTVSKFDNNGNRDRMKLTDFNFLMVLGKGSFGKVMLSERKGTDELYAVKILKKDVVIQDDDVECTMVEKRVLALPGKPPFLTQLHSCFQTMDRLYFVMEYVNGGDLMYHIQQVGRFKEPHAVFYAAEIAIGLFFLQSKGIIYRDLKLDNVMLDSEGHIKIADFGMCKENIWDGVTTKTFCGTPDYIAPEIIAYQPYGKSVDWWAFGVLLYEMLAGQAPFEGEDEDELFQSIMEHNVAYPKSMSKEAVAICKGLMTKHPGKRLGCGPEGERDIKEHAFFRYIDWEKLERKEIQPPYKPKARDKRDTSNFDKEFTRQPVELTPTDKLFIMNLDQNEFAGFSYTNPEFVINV
ELAV-like protein 1 (Homo sapiens), sequence (Q15717 whole entry): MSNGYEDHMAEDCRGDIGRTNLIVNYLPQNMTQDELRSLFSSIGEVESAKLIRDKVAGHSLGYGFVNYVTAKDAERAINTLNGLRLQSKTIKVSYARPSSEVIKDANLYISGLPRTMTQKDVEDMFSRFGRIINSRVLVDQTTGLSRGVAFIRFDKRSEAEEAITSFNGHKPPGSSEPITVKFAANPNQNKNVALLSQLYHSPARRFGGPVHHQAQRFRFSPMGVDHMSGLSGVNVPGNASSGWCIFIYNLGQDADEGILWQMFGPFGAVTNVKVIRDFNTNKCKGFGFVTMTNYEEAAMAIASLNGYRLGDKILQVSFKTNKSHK
cAMP-dependent protein kinase type II-alpha regulatory subunit (Homo sapiens), sequence (P13861 whole entry): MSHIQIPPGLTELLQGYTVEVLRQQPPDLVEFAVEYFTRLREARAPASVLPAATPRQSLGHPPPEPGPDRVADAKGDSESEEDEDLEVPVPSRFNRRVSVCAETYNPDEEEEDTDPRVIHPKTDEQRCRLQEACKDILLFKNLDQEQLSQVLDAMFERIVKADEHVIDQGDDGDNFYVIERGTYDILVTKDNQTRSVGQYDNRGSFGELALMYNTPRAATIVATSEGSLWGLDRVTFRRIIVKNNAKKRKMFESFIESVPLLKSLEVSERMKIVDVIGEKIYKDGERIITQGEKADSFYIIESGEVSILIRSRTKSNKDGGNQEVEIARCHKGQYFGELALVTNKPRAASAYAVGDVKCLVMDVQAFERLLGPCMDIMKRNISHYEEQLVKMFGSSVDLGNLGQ
Very-long-chain enoyl-CoA reductase (Homo sapiens), sequence (Q9NZ01 whole entry): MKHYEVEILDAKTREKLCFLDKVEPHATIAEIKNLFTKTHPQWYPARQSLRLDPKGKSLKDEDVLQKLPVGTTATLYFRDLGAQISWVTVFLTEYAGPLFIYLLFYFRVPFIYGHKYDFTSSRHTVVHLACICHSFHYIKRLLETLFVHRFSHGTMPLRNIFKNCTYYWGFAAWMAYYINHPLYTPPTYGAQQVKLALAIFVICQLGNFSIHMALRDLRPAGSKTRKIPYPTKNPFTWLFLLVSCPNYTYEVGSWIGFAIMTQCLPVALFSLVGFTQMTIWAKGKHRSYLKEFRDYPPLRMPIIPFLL
Puromycin-sensitive aminopeptidase (Homo sapiens), sequence (P55786 whole entry): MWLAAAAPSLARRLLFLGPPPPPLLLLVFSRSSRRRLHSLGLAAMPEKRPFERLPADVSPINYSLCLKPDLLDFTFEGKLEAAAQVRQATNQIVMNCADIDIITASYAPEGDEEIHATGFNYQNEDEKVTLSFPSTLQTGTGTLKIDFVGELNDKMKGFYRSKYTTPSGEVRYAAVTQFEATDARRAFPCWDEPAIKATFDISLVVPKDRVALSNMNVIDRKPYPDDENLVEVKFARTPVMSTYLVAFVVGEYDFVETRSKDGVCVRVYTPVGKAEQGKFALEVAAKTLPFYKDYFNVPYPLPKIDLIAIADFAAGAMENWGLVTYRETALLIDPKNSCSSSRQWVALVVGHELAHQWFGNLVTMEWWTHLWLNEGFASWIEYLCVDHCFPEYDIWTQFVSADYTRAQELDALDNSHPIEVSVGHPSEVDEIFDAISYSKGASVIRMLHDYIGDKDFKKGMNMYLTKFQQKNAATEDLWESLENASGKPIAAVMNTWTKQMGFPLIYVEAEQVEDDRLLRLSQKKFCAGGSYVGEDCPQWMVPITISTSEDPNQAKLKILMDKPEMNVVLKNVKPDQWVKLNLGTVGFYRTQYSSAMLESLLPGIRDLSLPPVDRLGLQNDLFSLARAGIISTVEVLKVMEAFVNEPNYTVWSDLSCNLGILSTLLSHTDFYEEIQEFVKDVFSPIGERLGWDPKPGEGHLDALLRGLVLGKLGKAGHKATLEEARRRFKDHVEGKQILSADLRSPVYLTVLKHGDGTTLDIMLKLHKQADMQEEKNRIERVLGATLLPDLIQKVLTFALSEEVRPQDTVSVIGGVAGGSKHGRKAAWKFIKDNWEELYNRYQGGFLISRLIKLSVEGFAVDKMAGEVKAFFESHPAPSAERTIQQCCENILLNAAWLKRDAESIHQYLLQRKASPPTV

Q: Which ED50 [1] does the source give for `Cc1ccc(C(=O)Nc2cccc(C(F)(F)F)c2)cc1Nc1nc(-c2cccnc2)nc2nn(C)cc12` here?
A: 0.00806 µM

Q: And the ED50 [2]?
A: 0.325 µM

Q: What about the ED50 [3] of the same compound?
A: 8.38 µM

Q: And the ED50 [4]?
A: 1.31 µM

Q: And the ED50 [5]?
A: 0.0947 µM

Q: And the ED50 [6]?
A: 4.45 µM

Q: What about the ED50 [7] of the same compound?
A: 1.94 µM

Q: What about the ED50 [8] of the same compound?
A: 0.121 µM

Q: What about the ED50 [9] of the same compound?
A: 0.188 µM

Q: What about the ED50 [10] of the same compound?
A: 1.15 µM

Q: What about the ED50 [11] of the same compound?
A: 17.7 µM

Q: What about the ED50 [12] of the same compound?
A: 0.0388 µM

Q: What about the ED50 [13] of the same compound?
A: 0.00782 µM

Q: What about the ED50 [14] of the same compound?
A: 2.14 µM

Q: And the ED50 [15]?
A: 32.5 µM

Q: What about the ED50 [16] of the same compound?
A: 0.0395 µM

Q: And the ED50 [17]?
A: 0.0585 µM

Q: And the ED50 [18]?
A: 6.81 µM

Q: And the ED50 [19]?
A: 155 µM

Q: What about the ED50 [20] of the same compound?
A: 16 µM

Q: And the ED50 [21]?
A: 0.053 µM

Q: And the ED50 [22]?
A: 2.93 µM

Q: What about the ED50 [23] of the same compound?
A: 2.75 µM

Q: And the ED50 [24]?
A: 0.0351 µM

Q: And the ED50 [25]?
A: 0.187 µM

Q: And the ED50 [26]?
A: 0.00986 µM

Q: And the ED50 [27]?
A: 0.545 µM

Q: What about the ED50 [28] of the same compound?
A: 0.00571 µM

Q: What about the ED50 [29] of the same compound?
A: 10.8 µM

Q: And the ED50 [30]?
A: 0.0907 µM

Q: What about the ED50 [31] of the same compound?
A: 0.0196 µM

Q: What about the ED50 [32] of the same compound?
A: 0.0401 µM

Q: What about the ED50 [33] of the same compound?
A: 0.0363 µM

Q: What about the ED50 [34] of the same compound?
A: 16.5 µM

Q: And the ED50 [35]?
A: 22.8 µM

Q: What about the ED50 [36] of the same compound?
A: 0.0386 µM

Q: What about the ED50 [37] of the same compound?
A: 1.77 µM

Q: And the ED50 [38]?
A: 0.213 µM

Q: And the ED50 [39]?
A: 0.0218 µM

Q: What about the ED50 [40] of the same compound?
A: 0.875 µM

Q: What about the ED50 [41] of the same compound?
A: 14.3 µM

Q: And the ED50 [42]?
A: 0.00758 µM

Q: What about the ED50 [43] of the same compound?
A: 0.0706 µM

Q: And the ED50 [44]?
A: 0.842 µM

Q: What about the ED50 [45] of the same compound?
A: 12.4 µM

Q: And the ED50 [46]?
A: 109 µM

Q: What about the ED50 [47] of the same compound?
A: 1810 µM

Q: What about the ED50 [48] of the same compound?
A: 0.00691 µM

Q: With `Cc1ccc(C(=O)Nc2cccc(C(F)(F)F)c2)cc1Nc1nc(-c2cccnc2)nc2c1cnn2C` as the compound, how does the ED50 [1] read?
A: 0.784 µM

Q: And the ED50 [2]?
A: 8.24 µM

Q: And the ED50 [3]?
A: 2.38 µM

Q: What about the ED50 [4] of the same compound?
A: 3.86 µM

Q: And the ED50 [5]?
A: 17.5 µM

Q: And the ED50 [6]?
A: 70.3 µM

Q: And the ED50 [7]?
A: 6.34 µM

Q: What about the ED50 [8] of the same compound?
A: 13.1 µM

Q: What about the ED50 [9] of the same compound?
A: 11.8 µM

Q: And the ED50 [10]?
A: 11 µM

Q: And the ED50 [11]?
A: 70 µM

Q: What about the ED50 [12] of the same compound?
A: 0.13 µM

Q: And the ED50 [13]?
A: 3.11 µM

Q: And the ED50 [14]?
A: 0.0127 µM

Q: What about the ED50 [15] of the same compound?
A: 5.98 µM

Q: And the ED50 [16]?
A: 67.2 µM

Q: And the ED50 [17]?
A: 0.0563 µM

Q: What about the ED50 [18] of the same compound?
A: 6.33 µM

Q: What about the ED50 [19] of the same compound?
A: 0.141 µM

Q: What about the ED50 [20] of the same compound?
A: 12.2 µM

Q: What about the ED50 [21] of the same compound?
A: 4.37 µM

Q: What about the ED50 [22] of the same compound?
A: 3.49 µM

Q: And the ED50 [23]?
A: 0.00564 µM

Q: What about the ED50 [24] of the same compound?
A: 2.82 µM

Q: What about the ED50 [25] of the same compound?
A: 0.0219 µM

Q: And the ED50 [26]?
A: 1.12 µM

Q: And the ED50 [27]?
A: 3.42 µM

Q: What about the ED50 [28] of the same compound?
A: 9.49 µM

Q: What about the ED50 [29] of the same compound?
A: 11.1 µM

Q: What about the ED50 [30] of the same compound?
A: 0.0863 µM

Q: What about the ED50 [31] of the same compound?
A: 13.9 µM

Q: And the ED50 [32]?
A: 0.16 µM

Q: And the ED50 [33]?
A: 0.0527 µM

Q: What about the ED50 [34] of the same compound?
A: 0.0107 µM

Q: What about the ED50 [35] of the same compound?
A: 0.00517 µM

Q: And the ED50 [36]?
A: 0.11 µM

Q: And the ED50 [37]?
A: 0.758 µM

Q: What about the ED50 [38] of the same compound?
A: 0.114 µM

Q: And the ED50 [39]?
A: 4.22 µM

Q: What about the ED50 [40] of the same compound?
A: 10.9 µM

Q: What about the ED50 [41] of the same compound?
A: 13.3 µM

Q: And the ED50 [42]?
A: 784 µM

Q: What about the ED50 [43] of the same compound?
A: 5.07 µM

Q: And the ED50 [44]?
A: 6.82 µM

Q: What about the ED50 [45] of the same compound?
A: 0.0049 µM

Q: What about the ED50 [46] of the same compound?
A: 0.00467 µM

Q: What about the ED50 [47] of the same compound?
A: 6.36 µM

Q: And the ED50 [48]?
A: 2.79 µM
